# Measurements reported in US11279727B2, “Anti-viral compounds and methods of use” (Metro International Biotech, LLC, priority 2020, dated 2022).
# Test system: SARS-CoV-2, USA-WA1/2020
# Assay: Antiviral assay: inhibition of SARS-CoV-2 cytopathic effect, neutral red
# Assay type: cell-based
# Conditions: Severe acute respiratory syndrome coronavirus 2; Vero 76 cells, CPE inhibition by 50%, neutral red; i) and ii) are separate determinations; read-out: Anti-viral Assay (EC50)
smiles,measurement,value
N#C[C@@]1(c2ccc3c(N)ncnn23)O[C@H](CO)[C@@H](O)[C@H]1O [GS-441524],EC50,0.5 to 1.1 µM
